The values below are quoted from earlier work in patent publication US7943796B2, “Lubricating oil additive and lubricating oil composition containing same” (Chevron Oronise Company LLC, priority 2008, dated 2011).

The data set relates to estrogen-inducible strain of yeast. To be noted: among alkylphenols, compared with 17β-estradiol.

For the molecule `CC(C)(C)CC(C)(C)c1ccc(O)cc1` [4-tert-octylphenol, 4-(1,1,3,3-Tetramethyl-butyl)-phenol], the estrogenic activity entry is on record as “highest activity”.
